In the experiment the target is T1, Ring1A (Homo sapiens, UniProt Q06587).
T1 construct: gene RING1; recombinant GST fusion of Ring1A (N-terminal HA tag, C-terminal six-histidine tag) in complex with GST-Bmi1, from E. coli; with Bmi1
T1 sequence (Q06587 1-406): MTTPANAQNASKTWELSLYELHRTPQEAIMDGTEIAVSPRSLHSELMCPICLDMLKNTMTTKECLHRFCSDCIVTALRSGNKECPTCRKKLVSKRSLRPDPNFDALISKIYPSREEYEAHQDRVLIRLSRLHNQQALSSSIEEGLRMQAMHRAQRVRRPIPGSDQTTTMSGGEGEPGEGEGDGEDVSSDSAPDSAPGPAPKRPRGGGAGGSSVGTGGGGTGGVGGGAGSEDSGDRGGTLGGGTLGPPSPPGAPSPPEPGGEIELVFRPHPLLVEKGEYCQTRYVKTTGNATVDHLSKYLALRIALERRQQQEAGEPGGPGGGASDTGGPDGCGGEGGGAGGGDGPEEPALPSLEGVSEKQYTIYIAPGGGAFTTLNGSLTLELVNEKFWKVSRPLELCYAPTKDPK
T1 sequence (P35226 1-326 partner): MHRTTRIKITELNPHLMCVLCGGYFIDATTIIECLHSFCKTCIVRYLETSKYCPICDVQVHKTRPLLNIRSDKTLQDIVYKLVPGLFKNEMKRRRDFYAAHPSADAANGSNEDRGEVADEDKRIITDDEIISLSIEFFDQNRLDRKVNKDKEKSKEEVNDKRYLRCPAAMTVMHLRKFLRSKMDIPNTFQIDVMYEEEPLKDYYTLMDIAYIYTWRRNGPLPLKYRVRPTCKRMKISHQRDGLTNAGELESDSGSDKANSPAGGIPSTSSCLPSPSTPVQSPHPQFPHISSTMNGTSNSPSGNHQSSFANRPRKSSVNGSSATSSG
Description: cell-free HTRF ubiquitination assay (E1, UbcH5a, Flag-ubiquitin), confirmed by gel-based Western blot. The format is biochemical. In general terms: TR-FRET usually uses a lanthanide donor and a delayed reading to cut background.

Turning to `O=C1C(=Cc2cccnc2)C(=O)c2ccccc21` [PRT4165], the IC50 (in general, the concentration that gives 50% inhibition) came to 3.9 µM.

The record behind these values is publication PMC2779455, “The E3 Ubiquitin-Ligase Bmi1/Ring1A Controls the Proteasomal Degradation of Top2α Cleavage Complex – A Potentially New Drug Target” (PLoS ONE, 2009).
